Test results from ChEMBL document CHEMBL1201861, “Genomics of Drug Sensitity in Cancer screening data, Wellcome Trust Sanger Institute”.

Tests used:
Type in all cases: functional, cell-based
KMS-12-PE = assay: cells; settings: Homo sapiens;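 note: growth inhibition of human KMS-12-PE cells, measured with a cell viability assay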
Description: SANGER: Inhibition of human KMS-12-PE cell growth in a cell viability assay.

NCI-H2141 = assay: cells; settings: Homo sapiens;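 note: growth inhibition of human NCI-H2141 cells, read out with a cell viability assay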
Description: SANGER: Inhibition of human NCI-H2141 cell growth in a cell viability assay.

LP-1 = assay: cells; settings: Homo sapiens;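 note: growth inhibition of human LP-1 cells, with the read-out taken from a cell viability assay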
Description: SANGER: Inhibition of human LP-1 cell growth in a cell viability assay.

SNU-C1 = assay: cells; settings: Homo sapiens;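 note: growth inhibition of SNU-C1 human cells, read out by a cell viability assay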
Description: SANGER: Inhibition of human SNU-C1 cell growth in a cell viability assay.

SIG-M5 = assay: cells; settings: Homo sapiens;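 note: cell viability assay read-out, measuring how strongly growth of cultured human SIG-M5 cells is inhibited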
Description: SANGER: Inhibition of human SIG-M5 cell growth in a cell viability assay.

NCI-H716 = assay: cells; settings: Homo sapiens;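 note: growth inhibition of human NCI-H716 cells, measured by a cell viability assay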
Description: SANGER: Inhibition of human NCI-H716 cell growth in a cell viability assay.

KARPAS-422 = assay: cells; settings: Homo sapiens
Description: SANGER: Inhibition of human KARPAS-422 cell growth in a cell viability assay.

ARH-77 = assay: cells; settings: Homo sapiens;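 note: growth inhibition of ARH-77 cells, read out by a cell viability assay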
Description: SANGER: Inhibition of human ARH-77 cell growth in a cell viability assay.

WSU-NHL = assay: cells; settings: Homo sapiens;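 note: growth inhibition of human WSU-NHL cells, read out with a cell viability assay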
Description: SANGER: Inhibition of human WSU-NHL cell growth in a cell viability assay.

NCI-H1522 = assay: cells; settings: Homo sapiens;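 note: growth inhibition of NCI-H1522 cells, read out with a cell viability assay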
Description: SANGER: Inhibition of human NCI-H1522 cell growth in a cell viability assay.

NCI-H1882 = assay: cells; settings: Homo sapiens;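 note: growth inhibition of the cell line, determined with a viability assay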
Description: SANGER: Inhibition of human NCI-H1882 cell growth in a cell viability assay.

SIMA = assay: cells; settings: Homo sapiens;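 note: growth inhibition of SIMA cells, measured with a cell viability readout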
Description: SANGER: Inhibition of human SIMA cell growth in a cell viability assay.

Kasumi 1 = assay: cells; settings: Homo sapiens;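 note: growth inhibition of human Kasumi-1 cells, read out by a cell viability assay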
Description: SANGER: Inhibition of human KASUMI-1 cell growth in a cell viability assay.

NCI-H345 = assay: cells; settings: Homo sapiens;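 note: growth inhibition of NCI-H345 cells measured with a cell viability assay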
Description: SANGER: Inhibition of human NCI-H345 cell growth in a cell viability assay.

RPMI-6666 = assay: cells; settings: Homo sapiens
Description: SANGER: Inhibition of human RPMI-6666 cell growth in a cell viability assay.

THP-1 = assay: cells; settings: Homo sapiens;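 note: growth inhibition of THP-1 cells, read out via a cell viability assay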
Description: SANGER: Inhibition of human THP-1 cell growth in a cell viability assay.

IMR-5 = assay: cells; settings: Homo sapiens;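 note: growth inhibition of human IMR-5 cells, read out with a cell viability assay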
Description: SANGER: Inhibition of human IMR-5 cell growth in a cell viability assay.

MC-CAR = assay: cells; settings: Homo sapiens;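 note: growth inhibition of the human MC-CAR cell line, read out by a cell viability assay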
Description: SANGER: Inhibition of human MC-CAR cell growth in a cell viability assay.

NCCIT = assay: SANGER: Inhibition of human NCCIT cell growth in a cell viability assay.
D-392MG = assay: cells; settings: Homo sapiens

| SMILES | IC50 (KMS-12-PE) | IC50 (NCI-H2141) | IC50 (LP-1) | IC50 (SNU-C1) | IC50 (SIG-M5) | IC50 (NCI-H716) | IC50 (KARPAS-422) | IC50 (ARH-77) | IC50 (WSU-NHL) | IC50 (NCI-H1522) | IC50 (NCI-H1882) | IC50 (SIMA) | IC50 (Kasumi 1) | IC50 (NCI-H345) | IC50 (RPMI-6666) | IC50 (THP-1) | IC50 (IMR-5) | IC50 (MC-CAR) | IC50 (NCCIT) | IC50 (D-392MG) |
| --- | --- | --- | --- | --- | --- | --- | --- | --- | --- | --- | --- | --- | --- | --- | --- | --- | --- | --- | --- | --- |
| CCNc1cc(N[C@H]2CC[C@@H](O)CC2)nc(Nc2ccc3c(ccn3Cc3ccccc3)c2)n1 | > 5.12 µM | > 5.12 µM | > 5.12 µM | > 5.12 µM | > 5.12 µM | > 5.12 µM | > 5.12 µM | > 5.12 µM | > 5.12 µM | > 5.12 µM | > 5.12 µM | > 5.12 µM | > 5.12 µM | > 5.12 µM | > 5.12 µM | > 5.12 µM | > 5.12 µM | > 5.12 µM | > 5.12 µM |  |
| COc1cc(C)c(Sc2cnc(NC(=O)c3ccc(CNC(C)C(C)(C)C)cc3)s2)cc1C(=O)N1CCN(C(C)=O)CC1 (configuration not stated) | > 10.2 µM | > 10.2 µM | > 10.2 µM | > 10.2 µM | 8.07 µM | > 10.2 µM | > 10.2 µM | > 10.2 µM | > 10.2 µM | > 10.2 µM | > 10.2 µM | > 10.2 µM | > 10.2 µM | > 10.2 µM | > 10.2 µM | > 10.2 µM | > 10.2 µM | > 10.2 µM | > 10.2 µM |  |
| Cc1ccc(NC(=O)c2cccc(C(C)(C)C#N)c2)cc1Nc1ccc2ncn(C)c(=O)c2c1 | > 4 µM | > 4 µM | > 4 µM | > 4 µM | 0.00945 µM | > 4 µM | > 4 µM | > 4 µM | > 4 µM | > 4 µM | > 4 µM | > 4 µM | > 4 µM | > 4 µM | > 4 µM | > 4 µM | > 4 µM | > 4 µM | > 4 µM | 0.356 µM |
| Cc1n[nH]c2ccc(-c3cncc(OC[C@@H](N)Cc4c[nH]c5ccccc45)c3)cc12 [A-443654] | > 1.02 µM | 0.54 µM | > 1.02 µM | > 1.02 µM | 0.13 µM | > 1.02 µM | 0.294 µM | 0.298 µM | > 1.02 µM | 0.464 µM | 0.428 µM | > 1.02 µM | > 1.02 µM | 0.75 µM | 0.152 µM | > 1.02 µM | 0.6 µM | > 1.02 µM | 0.234 µM |  |
